Assay: osmotic coefficient (dimensionless); mn = molality of the nth substance listed, in mol/kg
Details: 298.15 K, Liquid, isopiestic method

CCCC[N+](CC)(CC)CC.[I-] [butyltriethylammonium iodide] + O
Details	osmotic coefficient
m1 = 0.0475	0.9775
m1 = 0.0571	0.9735
m1 = 0.076	0.9668
m1 = 0.0898	0.9582
m1 = 0.0991	0.9545
m1 = 0.1499	0.94
m1 = 0.1571	0.93
m1 = 0.1638	0.9298
m1 = 0.1729	0.9266
m1 = 0.189	0.9199
m1 = 0.2281	0.9038
m1 = 0.293	0.8831
m1 = 0.3288	0.8677
m1 = 0.38	0.8544
m1 = 0.4288	0.837
m1 = 0.435	0.834
m1 = 0.4582	0.824
m1 = 0.5067	0.795
m1 = 0.5888	0.77
m1 = 0.7326	0.708
m1 = 0.7462	0.695
m1 = 0.76	0.691
m1 = 0.855	0.655
m1 = 0.9926	0.606
m1 = 1.093	0.569
m1 = 1.132	0.562
m1 = 1.178	0.554
m1 = 1.305	0.523
m1 = 1.503	0.481
m1 = 1.645	0.456
m1 = 1.681	0.45
m1 = 1.738	0.439
m1 = 1.782	0.433
m1 = 1.811	0.428

CCCCCCC[N+](CC)(CC)CC.[I-] [heptyltriethylammonium iodide] + O
Details	osmotic coefficient
m1 = 0.0575	0.8694
m1 = 0.077	0.84
m1 = 0.0876	0.829
m1 = 0.1022	0.815
m1 = 0.1082	0.805
m1 = 0.1205	0.787
m1 = 0.1533	0.757
m1 = 0.1727	0.742
m1 = 0.175	0.736
m1 = 0.1805	0.723
m1 = 0.2592	0.67
m1 = 0.2917	0.642
m1 = 0.3136	0.635
m1 = 0.3583	0.614
m1 = 0.4282	0.58
m1 = 0.4477	0.577
m1 = 0.4858	0.553
m1 = 0.5029	0.548
m1 = 0.5121	0.54
m1 = 0.5894	0.52
m1 = 0.6973	0.486
m1 = 0.787	0.45
m1 = 0.8401	0.434
m1 = 0.89	0.427
m1 = 1.105	0.384
m1 = 1.341	0.34
m1 = 1.504	0.325
m1 = 1.803	0.297
m1 = 1.921	0.289
m1 = 2.205	0.263
m1 = 2.515	0.253
m1 = 2.79	0.247
m1 = 2.96	0.24
m1 = 3	0.242

CCCCCC[N+](CC)(CC)CC.[I-] [hexyltriethylammonium iodide] + O
Details	osmotic coefficient
m1 = 0.0542	0.9221
m1 = 0.0712	0.9085
m1 = 0.0797	0.9098
m1 = 0.0926	0.8987
m1 = 0.0971	0.8963
m1 = 0.107	0.8864
m1 = 0.1332	0.8718
m1 = 0.1502	0.8528
m1 = 0.1517	0.8493
m1 = 0.153	0.8537
m1 = 0.2121	0.819
m1 = 0.232	0.808
m1 = 0.2494	0.798
m1 = 0.2836	0.775
m1 = 0.3308	0.751
m1 = 0.3473	0.744
m1 = 0.3651	0.737
m1 = 0.3804	0.724
m1 = 0.3878	0.713
m1 = 0.4518	0.678
m1 = 0.5224	0.648
m1 = 0.5588	0.633
m1 = 0.5839	0.624
m1 = 0.6237	0.609
m1 = 0.7289	0.582
m1 = 0.8228	0.555
m1 = 0.9203	0.531
m1 = 1.101	0.487
m1 = 1.171	0.475
m1 = 1.275	0.454
m1 = 1.512	0.421
m1 = 1.84	0.375
m1 = 1.94	0.366
m1 = 2.04	0.356
m1 = 2.24	0.337
m1 = 2.344	0.329

CC[N+](C)(CC)CC.[I-] [methyltriethylammonium iodide] + O
Details	osmotic coefficient
m1 = 0.0478	0.739
m1 = 0.0576	0.714
m1 = 0.0766	0.673
m1 = 0.0902	0.648
m1 = 0.0995	0.632
m1 = 0.1505	0.564
m1 = 0.1558	0.556
m1 = 0.1631	0.548
m1 = 0.1721	0.539
m1 = 0.1879	0.523
m1 = 0.2254	0.488
m1 = 0.2898	0.44
m1 = 0.324	0.421
m1 = 0.3742	0.391
m1 = 0.4177	0.371
m1 = 0.4237	0.368
m1 = 0.4447	0.36
m1 = 0.4801	0.347
m1 = 0.5528	0.321
m1 = 0.6505	0.294
m1 = 0.6561	0.295
m1 = 0.6693	0.291
m1 = 0.7286	0.28
m1 = 0.8032	0.265
m1 = 0.8482	0.259
m1 = 0.8851	0.255
m1 = 0.9205	0.249
m1 = 0.9981	0.241
m1 = 1.101	0.232
m1 = 1.2	0.226
m1 = 1.22	0.224
m1 = 1.25	0.223
m1 = 1.29	0.22
m1 = 1.37	0.219

CCCCC[N+](CC)(CC)CC.[I-] [pentyltriethylammonium iodide] + O
Details	osmotic coefficient
m1 = 0.0539	0.9283
m1 = 0.0703	0.9203
m1 = 0.0798	0.9092
m1 = 0.0922	0.903
m1 = 0.0976	0.8923
m1 = 0.1065	0.891
m1 = 0.132	0.8799
m1 = 0.1471	0.8712
m1 = 0.1482	0.8694
m1 = 0.1501	0.8697
m1 = 0.2076	0.8364
m1 = 0.2284	0.821
m1 = 0.2454	0.811
m1 = 0.2742	0.802
m1 = 0.3148	0.789
m1 = 0.3295	0.784
m1 = 0.3456	0.778
m1 = 0.3579	0.77
m1 = 0.3614	0.765
m1 = 0.4108	0.746
m1 = 0.4718	0.718
m1 = 0.498	0.711
m1 = 0.514	0.709
m1 = 0.5434	0.699
m1 = 0.6238	0.68
m1 = 0.6938	0.658
m1 = 0.7814	0.625
m1 = 0.9005	0.595
m1 = 0.9578	0.58
m1 = 1.015	0.571
m1 = 1.199	0.531
m1 = 1.359	0.508
m1 = 1.465	0.485
m1 = 1.549	0.468
m1 = 1.688	0.447

CC[N+](CC)(CC)CC.[I-] [tetraethylammonium iodide] + O
Details	osmotic coefficient
m1 = 0.0519	0.8954
m1 = 0.0633	0.8781
m1 = 0.086	0.8544
m1 = 0.1019	0.8443
m1 = 0.1134	0.834
m1 = 0.1748	0.806
m1 = 0.1826	0.8
m1 = 0.1916	0.795
m1 = 0.2018	0.794
m1 = 0.2218	0.784
m1 = 0.2718	0.758
m1 = 0.3586	0.722
m1 = 0.3999	0.714
m1 = 0.4738	0.685
m1 = 0.5329	0.674
m1 = 0.5415	0.67
m1 = 0.5698	0.662
m1 = 0.6153	0.655
m1 = 0.7181	0.631
m1 = 0.8456	0.613
m1 = 0.8512	0.609
m1 = 0.8671	0.606
m1 = 0.9377	0.597
m1 = 1.032	0.583
m1 = 1.076	0.578
m1 = 1.109	0.574
m1 = 1.151	0.566
m1 = 1.224	0.558
m1 = 1.309	0.553
m1 = 1.373	0.546
m1 = 1.391	0.543
m1 = 1.403	0.544
m1 = 1.429	0.54
m1 = 1.442	0.537

CC[N+](CC)(CC)C(C)C.[I-] [triethylisopropylammonium iodide] + O
Details	osmotic coefficient
m1 = 0.0475	0.9777
m1 = 0.057	0.9749
m1 = 0.0757	0.9713
m1 = 0.0889	0.968
m1 = 0.0981	0.9643
m1 = 0.1471	0.9579
m1 = 0.1528	0.9563
m1 = 0.1597	0.9537
m1 = 0.1682	0.9525
m1 = 0.1838	0.9459
m1 = 0.2194	0.9398
m1 = 0.2793	0.9267
m1 = 0.3108	0.918
m1 = 0.3581	0.9067
m1 = 0.408	0.88
m1 = 0.4103	0.884
m1 = 0.4322	0.8735
m1 = 0.4691	0.8589
m1 = 0.5492	0.825
m1 = 0.6807	0.762
m1 = 0.6907	0.751
m1 = 0.7103	0.74
m1 = 0.8103	0.691
m1 = 0.9083	0.662
m1 = 0.9858	0.631
m1 = 1.081	0.589
m1 = 1.111	0.587
m1 = 1.22	0.559
m1 = 1.326	0.546
m1 = 1.388	0.541
m1 = 1.402	0.539
m1 = 1.428	0.535
m1 = 1.448	0.533
m1 = 1.462	0.53

Reference: the NIST ThermoML archive (doi:10.1016/j.fluid.2006.09.025)
